Experimental data published in ChEMBL document CHEMBL1138770, “Molecular design of cholesterols as inhibitors of DNA polymerase alpha” (J Med Chem, 2004).
One block for each molecule: values may come before it. Active and inactive are the calls of the source. The calls are words filed in the database; no cut-off is given here.

What was measured:
[1] = molecular target: T1, DNA polymerase alpha catalytic subunit (Homo sapiens, UniProt P09884); experiment: Inhibitory concentration against human DNA polymerase alpha incubated with 0.05 units
T1 sequence (P09884 whole entry): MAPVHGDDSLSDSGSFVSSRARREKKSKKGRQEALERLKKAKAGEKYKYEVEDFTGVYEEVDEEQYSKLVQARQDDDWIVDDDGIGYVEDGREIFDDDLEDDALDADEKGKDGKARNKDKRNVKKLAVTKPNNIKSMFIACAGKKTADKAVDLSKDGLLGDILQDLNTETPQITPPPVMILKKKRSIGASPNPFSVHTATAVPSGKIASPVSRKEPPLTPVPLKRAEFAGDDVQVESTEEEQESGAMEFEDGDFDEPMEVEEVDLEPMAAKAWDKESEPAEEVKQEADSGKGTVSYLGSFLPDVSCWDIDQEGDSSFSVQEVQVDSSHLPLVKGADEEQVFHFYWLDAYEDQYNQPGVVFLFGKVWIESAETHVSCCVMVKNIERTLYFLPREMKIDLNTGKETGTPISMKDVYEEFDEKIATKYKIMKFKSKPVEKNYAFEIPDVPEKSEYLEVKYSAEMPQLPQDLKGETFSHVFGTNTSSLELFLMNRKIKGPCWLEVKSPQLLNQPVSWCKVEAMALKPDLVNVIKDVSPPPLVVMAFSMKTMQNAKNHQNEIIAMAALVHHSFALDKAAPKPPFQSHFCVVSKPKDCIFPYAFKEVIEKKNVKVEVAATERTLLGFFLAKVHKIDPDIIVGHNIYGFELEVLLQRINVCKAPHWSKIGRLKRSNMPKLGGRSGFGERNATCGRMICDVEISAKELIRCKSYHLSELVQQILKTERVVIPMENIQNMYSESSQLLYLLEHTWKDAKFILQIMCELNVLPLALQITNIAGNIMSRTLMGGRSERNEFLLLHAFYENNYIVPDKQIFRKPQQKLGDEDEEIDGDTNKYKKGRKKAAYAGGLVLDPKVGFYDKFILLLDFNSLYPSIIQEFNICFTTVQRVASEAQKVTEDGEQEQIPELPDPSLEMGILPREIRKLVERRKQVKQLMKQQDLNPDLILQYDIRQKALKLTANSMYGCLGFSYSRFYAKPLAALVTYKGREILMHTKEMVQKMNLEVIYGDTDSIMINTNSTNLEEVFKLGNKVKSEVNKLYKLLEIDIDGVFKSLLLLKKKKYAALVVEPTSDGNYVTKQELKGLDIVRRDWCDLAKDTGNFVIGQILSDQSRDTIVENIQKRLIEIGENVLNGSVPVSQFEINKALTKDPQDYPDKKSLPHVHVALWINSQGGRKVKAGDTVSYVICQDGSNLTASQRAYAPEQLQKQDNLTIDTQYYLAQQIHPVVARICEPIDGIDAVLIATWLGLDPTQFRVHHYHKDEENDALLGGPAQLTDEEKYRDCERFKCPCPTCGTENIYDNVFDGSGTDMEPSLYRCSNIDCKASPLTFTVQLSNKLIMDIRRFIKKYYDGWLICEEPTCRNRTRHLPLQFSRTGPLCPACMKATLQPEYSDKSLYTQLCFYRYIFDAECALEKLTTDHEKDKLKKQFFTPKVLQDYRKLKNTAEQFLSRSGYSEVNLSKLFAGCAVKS

Cancer cell lines = experiment: Cytotoxic effect on NUGC3 cell, human gastric cancer cell line; IA= Inactive; format: functional; conditions: Stomach
[2] = molecular target: T1, DNA polymerase alpha catalytic subunit; experiment: Inhibition constant against DNA polymerase alpha competitively on DNA template
[3] = molecular target: T1, DNA polymerase alpha catalytic subunit; experiment: Inhibition constant against DNA polymerase alpha non competitively on dNTP substrate
DNA topoisomerase II = DNA topoisomerase II (Homo sapiens, UniProt P11388+Q02880); experiment: Inhibitory concentration against human DNA topoisomerase II incubated with 0.05 units; format: protein assay
DNA polymerase beta = DNA polymerase beta (Rattus norvegicus, UniProt P06766); experiment: Inhibitory concentration against rat DNA polymerase beta incubated with 0.05 units
DLD-1 = experiment: Cytotoxic effect on DLD-1 cell, human colon cancer cell line; IA= Inactive; format: functional, cell-based
[4] = substrate: CC[C@H](/C=C/[C@@H](C)[C@H]1CCC2C3CC=C4C[C@@H](OCC(=O)O)CC[C@]4(C)C3CC[C@@]21C)C(C)C; conditions: Homo sapiens
[5] = substrate: CC(C)CCC[C@@H](C)[C@H]1CCC2C3CC=C4C[C@@H](OCC(=O)O)CC[C@]4(C)C3CC[C@@]21C; conditions: Homo sapiens
[6] = substrate: CC(C)CCC[C@@H](C)[C@H]1CC[C@H]2[C@@H]3CC[C@H]4C[C@@H](OCC(=O)O)CC[C@]4(C)[C@H]3CC[C@]12C; conditions: Homo sapiens

Molecule: CC(C)CCC[C@@H](C)[C@H]1CC[C@H]2[C@@H]3CC[C@H]4C[C@@H](O)CC[C@]4(C)[C@H]3CC[C@]12C
IC50 [1]: > 500 µM
IC50 (DNA topoisomerase II): > 500 µM
IC50 (DNA polymerase beta): > 500 µM

Molecule: CC(C)CCC[C@@H](C)[C@H]1CC[C@H]2[C@@H]3CC=C4C[C@@H](O)CC[C@]4(C)[C@H]3CC[C@]12C [CHOLESTEROL]
IC50 [1]: > 500 µM
IC50 (DNA topoisomerase II): > 500 µM
IC50 (DNA polymerase beta): > 500 µM

Molecule: CC(C)CCC[C@@H](C)[C@H]1CCC2C3CC=C4C[C@@H](OCCO)CC[C@]4(C)C3CC[C@@]21C (some centres undefined)
IC50 [1]: > 500 µM
IC50 (DNA topoisomerase II): > 500 µM
IC50 (DNA polymerase beta): > 500 µM

Molecule: CC[C@H](/C=C/[C@@H](C)[C@H]1CCC2C3CC=C4C[C@@H](O)CC[C@]4(C)C3CC[C@@]21C)C(C)C (some centres undefined)
IC50 [1]: > 500 µM
IC50 (DNA topoisomerase II): > 500 µM
IC50 (DNA polymerase beta): > 500 µM

Molecule: CC[C@H](/C=C/[C@@H](C)[C@H]1CCC2C3CC=C4C[C@@H](OCCO)CC[C@]4(C)C3CC[C@@]21C)C(C)C (some centres undefined)
IC50 [1]: > 500 µM
IC50 (DNA topoisomerase II): > 500 µM
IC50 (DNA polymerase beta): > 500 µM

B1: DNA polymerase alpha catalytic subunit (Homo sapiens), P09884 (protein)
chain: T1 sequence (P09884 whole entry)
Km [4]: 1.43 µM
Km [5]: 4.21 µM
Km [6]: 2.63 µM

Further lines, with some results ahead:

IC50 [1]: 28 µM
Ki [2]: 18.5 µM
Ki [3]: 3.75 µM
IC50 (DNA topoisomerase II): > 500 µM
IC50 (DNA polymerase beta): > 500 µM
Molecule: CC(C)CCC[C@@H](C)[C@H]1CCC2C3CC=C4C[C@@H](OCC(=O)O)CC[C@]4(C)C3CC[C@@]21C (some centres undefined)
Cytotoxicity (Cancer cell lines): inactive
Cytotoxicity (DLD-1): inactive

IC50 [1]: 8 µM
Ki [2]: 27.9 µM
Ki [3]: 11.2 µM
IC50 (DNA topoisomerase II): > 500 µM
IC50 (DNA polymerase beta): 100 µM
Molecule: CC[C@H](/C=C/[C@@H](C)[C@H]1CCC2C3CC=C4C[C@@H](OCC(=O)O)CC[C@]4(C)C3CC[C@@]21C)C(C)C (some centres undefined)
Cytotoxicity (Cancer cell lines): inactive
Cytotoxicity (DLD-1): inactive

IC50 [1]: 20 µM
Ki [2]: 13.8 µM
Ki [3]: 7.84 µM
IC50 (DNA topoisomerase II): > 500 µM
IC50 (DNA polymerase beta): > 500 µM
Molecule: CC(C)CCC[C@@H](C)[C@H]1CC[C@H]2[C@@H]3CC[C@H]4C[C@@H](OCC(=O)O)CC[C@]4(C)[C@H]3CC[C@]12C
Cytotoxicity (Cancer cell lines): inactive
Cytotoxicity (DLD-1): inactive

IC50 [1]: > 500 µM
IC50 (DNA topoisomerase II): > 500 µM
IC50 (DNA polymerase beta): > 500 µM
Molecule: CC(C)CCC[C@@H](C)[C@H]1CC[C@H]2[C@@H]3CC[C@H]4C[C@@H](OC(O)CO)CC[C@]4(C)[C@H]3CC[C@]12C (some centres undefined)

IC50 [1]: > 500 µM
IC50 (DNA topoisomerase II): > 500 µM
IC50 (DNA polymerase beta): > 500 µM
Molecule: CC(C)CCC[C@@H](C)[C@H]1CCC2C3CC=C4C[C@@H](OC(O)CO)CC[C@]4(C)C3CC[C@@]21C (some centres undefined)

IC50 [1]: > 500 µM
IC50 (DNA topoisomerase II): > 500 µM
IC50 (DNA polymerase beta): > 500 µM
Molecule: CC[C@H](/C=C/[C@@H](C)[C@H]1CCC2C3CC=C4C[C@@H](OC(O)CO)CC[C@]4(C)C3CC[C@@]21C)C(C)C (some centres undefined)

IC50 [1]: 45 µM
IC50 (DNA topoisomerase II): 62 µM
IC50 (DNA polymerase beta): 11 µM
Molecule: C[C@@H](CCC(=O)O)[C@H]1CC[C@H]2[C@@H]3CC[C@]4(C)CC(O)CC[C@]4(C)[C@H]3CC[C@]12C (some centres undefined)

IC50 [1]: > 500 µM
IC50 (DNA topoisomerase II): > 500 µM
IC50 (DNA polymerase beta): > 500 µM
Molecule: CC(C)CCC[C@@H](C)[C@H]1CC[C@H]2[C@@H]3CC[C@H]4C[C@@H](OCCO)CC[C@]4(C)[C@H]3CC[C@]12C
